# Data as given in ChEMBL document CHEMBL1806400, “New isoprenylated flavonoids and adipogenesis-promoting constituents from Morus notabilis” (2011).
# The source made the active and inactive calls. The rule behind the calls is not given here.
# Legend:
# 3T3-L1 [1] = assay: Induction of adipogenesis in mouse 3T3L1 cells assessed as increase in triglyceride content after 8 days by Oil red O staining relative to control; type: functional, cell-based
# 3T3-L1 [2] = assay: Upregulation of GLUT4 protein expression in mouse 3T3L1 cells by Western blot analysis; type: functional, cell-based
# 3T3-L1 [3] = assay: Upregulation of GLUT4 gene expression in mouse 3T3L1 cells by RT-PCR analysis; type: functional, cell-based
# 3T3-L1 [4] = assay: Upregulation of aP2 protein expression in mouse 3T3L1 cells by Western blot analysis; type: functional, cell-based
# 3T3-L1 [5] = assay: Induction of adipogenesis in mouse 3T3L1 cells assessed as increase in triglyceride content at 15 uM after 8 days by Oil red O staining relative to control; type: functional
# 3T3-L1 [6] = assay: Upregulation of aP2 gene expression in mouse 3T3L1 cells by RT-PCR analysis; type: functional, cell-based
# 3T3-L1 [7] = assay: Induction of adipogenesis in mouse 3T3L1 cells assessed as increase in triglyceride content at 7.5 uM after 8 days by Oil red O staining relative to control; type: functional
# 3T3-L1 [8] = assay: Induction of adipogenesis in mouse 3T3L1 cells assessed as increase in triglyceride content at 5 uM after 8 days by Oil red O staining relative to control; type: functional
# 3T3-L1 [9] = assay: Induction of adipogenesis in mouse 3T3L1 cells assessed as increase in triglyceride content at 10 uM after 8 days by Oil red O staining relative to control; type: functional
# 3T3-L1 [10] = assay: Induction of adipogenesis in mouse 3T3L1 cells assessed as increase in triglyceride content at 1 uM after 8 days by Oil red O staining relative to control; type: functional
Structure (SMILES),Activity (3T3-L1 [1]),Activity (3T3-L1 [2]),Activity (3T3-L1 [3]),Activity (3T3-L1 [4]),Activity (3T3-L1 [5]),Activity (3T3-L1 [6]),Activity (3T3-L1 [7]),Activity (3T3-L1 [8]),Activity (3T3-L1 [9]),Activity (3T3-L1 [10])
CC(C)=CCc1c(O)ccc(C(=O)[C@H]2[C@@H](c3c(O)ccc(C(=O)/C=C/c4ccc(O)cc4O)c3O)C=C(C)C[C@@H]2c2ccc(O)cc2O)c1O,inactive,,,,,,,,,
CC(C)=CCc1c(O)ccc(C(=O)[C@H]2[C@@H](c3c(O)cc(-c4cc5ccc(O)cc5o4)cc3O)C=C(C)C[C@@H]2c2ccc(O)cc2O)c1O [CHALCOMORACIN],,inactive,inactive,Active,125.36%,inactive,109.99%,,,
COc1c(-c2ccc(O)c(O)c2C/C=C(\C)CCC=C(C)C)oc2cc(O)cc(O)c2c1=O [NOTABILISIN A],,Active,Active,Active,,Active,,305.32%,513.55%,
CC(C)=CCC/C(C)=C/Cc1c(-c2oc3c(CC=C(C)C)c(O)cc(O)c3c(=O)c2O)ccc(O)c1O [NOTABILISIN C],,Active,Active,Active,948.51%,Active,312.24%,,,
CN(CCOc1ccc(CC2SC(=O)NC2=O)cc1)c1ccccn1 (stereo not given) [ROSIGLITAZONE],,,,,,,,,,984.24%
